We go through two substances from patent publication US20070269793A1, “Bioactive Boxes for Cellular Cultures” (priority 2003, published 2007).

Holding throughout (type): cell-based, murine
The subject of one assay is Fn. As to the kind of experiment: Fn synthesis (indirect immunolabelling). The following applies: three melanoma lines cultured on PS with MSH.
The subject of another assay is B16 C3 line. The assay can be described thus: Proliferation, cell count (Malassez hemocytometer). The following applies: B16 C3 on PS in the presence of MSH (same in its absence), 48 hours. How it is done: (§1) The cells are cultured in medium supplemented by 10% foetal calf serum, 1% L-Glutamine and 0.5% antibiotics (penicillin, streptomycin).
(§2) —b—proliferation: 10,000 cells are seeded per cm^2. The cells are counted (Malassez hemocytometer) after culture for 24 and 48 hours.
(§3) It should be noted that the B16 F0 and B16 F10 lines proliferate more on cellulose that the B16 C3 line, which is non-metastatic. The number of B16 F0 and F10 cells is multiplied by 3 on cellulose. It is multiplied by 6 on PS, in the presence or absence of MSH 10^−7 M melanin-stimulating hormone used as a second control.

The test system of a further assay is B16 F0 and B16 F10 lines. As to the kind of experiment: Proliferation, cell count (Malassez hemocytometer). The following applies: B16 F0 and F10 on PS in the presence of MSH 10^−7 M (same in its absence). The procedure:
as §1, §2, §3

The next assay deals with B16 melanoma cells. The assay can be described thus: Calcium dependence of cell aggregation. The conditions noted are these: absence of Ca^++; 3 lines, after 1 and 3 hours.

For the substance melanin-stimulating hormone [MSH], the Fn synthesis result in the assay on Fn is reported as “increase in Fn synthesis”. Also, the “number of cells multiplied by” value with B16 C3 line stood at 2; in the assay with B16 F0 and B16 F10 lines it was 6.

Take monencin: the “percentage of cells isolated” value in the assay on B16 melanoma cells is recorded as “very significantly increased”.
